Target: T1, hGIP-R (Homo sapiens, UniProt P48546)
T1 construct: expressed in transfected cells; host or cells: HEK-293 clonal cell lines
T1 sequence (P48546 22-466): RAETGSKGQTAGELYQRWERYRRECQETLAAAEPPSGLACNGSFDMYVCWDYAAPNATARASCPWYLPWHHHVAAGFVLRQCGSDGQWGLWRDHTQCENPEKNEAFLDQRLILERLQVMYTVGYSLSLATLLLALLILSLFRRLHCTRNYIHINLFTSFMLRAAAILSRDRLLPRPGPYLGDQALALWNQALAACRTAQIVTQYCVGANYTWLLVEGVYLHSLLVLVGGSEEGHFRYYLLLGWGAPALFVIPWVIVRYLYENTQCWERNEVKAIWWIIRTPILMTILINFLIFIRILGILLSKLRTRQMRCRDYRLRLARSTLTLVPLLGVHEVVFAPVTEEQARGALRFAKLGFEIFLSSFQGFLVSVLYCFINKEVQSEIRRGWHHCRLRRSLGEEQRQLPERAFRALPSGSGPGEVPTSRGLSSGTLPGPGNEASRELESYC
Test: Functional hGIP-R Assay (cAMP formation, HTRF)
Format: cell-based
Conditions: for Emax: cAMP efficacy, percent of maximal response to GIP(1-42)OH, 37° C., 0.1% bovine casein, arithmetic mean ± SEM; for EC50: cAMP potency, HEK-293 cells expressing hGIP-R, incubated at 37° C. in the presence of 0.1% bovine casein, geometric mean, read-out: Human GIP-R EC50, nM (SEM, n)
Procedure: Functional activity was determined using CAMP formation in HEK-293 clonal cell lines expressing hGIP-R. hGIP-R receptor expressing cells were treated with compound (20 point concentration-response curve in DMSO, 2-fold Labcyte Echo direct dilution, 384 well plate Corning Cat #3570) in DMEM (Gibco Cat #31053) supplemented with 1× GlutaMAX™ (Gibco Cat #35050), 0.1% bovine casein (Sigma C4765-10ML), 250 μM IBMX (3-Isobutyl-1-methylxanthine, Acros Cat #228420010) and 20 mM HEPES (Gibco Cat #15630) in a 20 μL assay volume (final DMSO concentration was 1%). After a 30 min incubation at 37° C., the resulting increase in intracellular cAMP was quantitatively determined using the Revvity CAMP Dynamic 2 HTRF Assay Kit (62AM4PEJ). Briefly, cAMP levels within the cell were detected by adding the cAMP-d2 conjugate in cell lysis buffer (10 μL) followed by the antibody anti-cAMP-Eu^3+-Cryptate, also in cell lysis buffer (10 μL). The resulting competitive assay was incubated for at least 60 min at RT, then detected using a BMG Labtech PHERAstar FSX instrument with excitation at 320 nm and emission at 665 nm and 620 nm. PHERAstar units (emission at 665 nm/620 nm*10,000) are inversely proportional to the amount of cAMP present and were converted to nM cAMP per well using a CAMP standard curve. The amount of cAMP generated (nM) in each well was converted to a percent of the maximal response observed with human GIP (1-42) OH. A relative EC50 value and percent top (Emax) were derived by non-linear regression analysis using the percent maximal response vs. the concentration of compound added, fitted to a four-parameter logistic equation.

SMILES	Emax [%]	EC50 [nM]
Cn1cc(C[C@@H](NC(=O)C2CC2c2ccc(-c3cnc4nn(C)cc4c3)s2)C(=O)NC(C)(C)Cn2nc(C(F)(F)F)cc2Br)cn1 (single isomer, unassigned; isomer 2) [Example 7]	99.7 ± 0.756	246
Cn1cc(C[C@@H](NC(=O)C2CC2c2ccc(-c3cnc4nccn4c3)cc2C(F)(F)F)C(=O)NC(C)(C)Cc2ccc(F)cc2)cn1 (single isomer, unassigned; isomer 2) [Example 29]	99.4	79.8
Cn1cc(C[C@@H](NC(=O)C2CC2(C)c2ccc(-c3cnc4nn(C)cc4c3)cc2)C(=O)NC(C)(C)Cn2cc(C(F)(F)F)cn2)cn1 (single isomer, unassigned; isomer 4) [Example 11]	117 ± 5.22	55.2
Cn1cc2cc(-c3ccc([C@H]4C[C@@H]4C(=O)N[C@H](Cc4cnn(C(F)F)c4)C(=O)NC(C)(C)Cn4nc(C(F)(F)F)cc4Br)cc3)cnc2n1 [Example 12, (1S,2S)-N-((R)-1-((1-(5-bromo-3-(trifluoromethyl)-1H-pyrazol-1-yl)-2-methylpropan-2-yl)amino)-3-(1-(difluoromethyl)-1H-pyrazol-4-yl)-1-oxopropan-2-yl)-2-(4-(2-methyl-2H-pyrazolo[3,4-b]pyridin-5-yl)phenyl) cyclopropane-1-carboxamide]	106 ± 5.38	104
Cn1cc(C[C@@H](NC(=O)[C@H]2C[C@@H]2c2ccc(-c3cnc4nn(C)cc4c3)cc2)C(=O)NC(C)(C)Cn2nc(C(F)(F)F)cc2-c2n[nH]cc2F)cn1 [Example 14, (1S,2S)-N-((R)-1-((1-(4-Fluoro-5′-(trifluoromethyl)-1H,2′H-[3,3′-bipyrazol]-2′-yl)-2-methylpropan-2-yl)amino)-3-(1-methyl-1H-pyrazol-4-yl)-1-oxopropan-2-yl)-2-(4-(2-methyl-2H-pyrazolo[3,4-b]pyridin-5-yl)phenyl) cyclopropane-1-carboxamide]	103 ± 10.2	87.7
Cc1ncc(-c2cc(C(F)(F)F)nn2CC(C)(C)NC(=O)[C@@H](Cc2cnn(C)c2)NC(=O)[C@H]2C[C@@H]2c2ccc(-c3cnc4nn(C)cc4c3)cc2)[nH]1 [Example 15, (1S,2S)-N-((R)-1-((2-Methyl-1-(5-(2-methyl-1H-imidazol-5-yl)-3-(trifluoromethyl)-1H-pyrazol-1-yl)propan-2-yl)amino)-3-(1-methyl-1H-pyrazol-4-yl)-1-oxopropan-2-yl)-2-(4-(2-methyl-2H-pyrazolo[3,4-b]pyridin-5-yl)phenyl) cyclopropane-1-carboxamide]	117 ± 6.6	24.6
Cn1cc(C[C@@H](NC(=O)[C@H]2C[C@@H]2c2ccc(-c3cnc4nn(C)cc4c3)cc2)C(=O)NC(C)(C)Cn2nc(C(F)(F)F)cc2-c2n[nH]c(=O)s2)cn1 [Example 16, (1S,2S)-N-((R)-1-((2-Methyl-1-(5-(5-oxo-4,5-dihydro-1,3,4-thiadiazol-2-yl)-3-(trifluoromethyl)-1H-pyrazol-1-yl)propan-2-yl)amino)-3-(1-methyl-1H-pyrazol-4-yl)-1-oxopropan-2-yl)-2-(4-(2-methyl-2H-pyrazolo[3,4-b]pyridin-5-yl)phenyl) cyclopropane-1-carboxamide]	104 ± 4.17	36
Cn1cc(C[C@@H](NC(=O)[C@H]2C[C@@H]2c2ccc(-c3cnc4nn(C)cc4c3)cc2)C(=O)NC(C)(C)Cn2nc(C(F)(F)F)cc2-c2ncsn2)cn1 [Example 17, (1S,2S)-N-((R)-1-((1-(5-(1,2,4-Thiadiazol-3-yl)-3-(trifluoromethyl)-1H-pyrazol-1-yl)-2-methylpropan-2-yl)amino)-3-(1-methyl-1H-pyrazol-4-yl)-1-oxopropan-2-yl)-2-(4-(2-methyl-2H-pyrazolo [3,4-b]pyridin-5-yl)phenyl) cyclopropane-1-carboxamide]	129 ± 11.4	83.5
Cn1cc(C[C@@H](NC(=O)[C@H]2C[C@@H]2c2ccc(-c3cnc4nn(C)cc4c3)cc2)C(=O)NC(C)(C)Cn2nc(C(F)(F)F)cc2-c2ccnc(C(C)(C)O)c2)cn1 [Example 18, (1S,2S)-N-((R)-1-((1-(5-(2-(2-Hydroxypropan-2-yl)pyridin-4-yl)-3-(trifluoromethyl)-1H-pyrazol-1-yl)-2-methylpropan-2-yl)amino)-3-(1-methyl-1H-pyrazol-4-yl)-1-oxopropan-2-yl)-2-(4-(2-methyl-2H-pyrazolo [3,4-b]pyridin-5-yl)phenyl) cyclopropane-1-carboxamide]	116 ± 13	12
Cn1cc(C[C@@H](NC(=O)[C@H]2C[C@@H]2c2ccc(-c3cnc4nn(C)cc4c3)cc2)C(=O)NC(C)(C)Cn2nc(C(F)(F)F)cc2-c2ccc(=O)n(C)c2)cn1 [Example 19, (1S,2S)-N-((R)-1-((2-Methyl-1-(5-(1-methyl-6-oxo-1,6-dihydropyridin-3-yl)-3-(trifluoromethyl)-1H-pyrazol-1-yl)propan-2-yl)amino)-3-(1-methyl-1H-pyrazol-4-yl)-1-oxopropan-2-yl)-2-(4-(2-methyl-2H-pyrazolo[3,4-b]pyridin-5-yl)phenyl) cyclopropane-1-carboxamide]	123 ± 1.72	66.9

Now from value to compound:

Emax [%]	EC50 [nM]	SMILES
79.5 ± 5.3	144	Cn1cc2cc(-c3ccc([C@H]4C[C@@]45CCN([C@H](Cc4cnn(C(F)F)c4)C(=O)NC4(Cn6nc(C(F)(F)F)cc6-c6cc(F)c(=O)n(C)c6)CC4)C5=O)c(F)c3)cnc2n1 (single isomer, unassigned; isomer 1) [Example 119]
84.8 ± 5.99	51.7	[2H]C([2H])([2H])N(C(=O)C1CC1(C)c1ccc(-c2cnc3nn(C)cc3c2)cc1F)[C@H](Cc1cnn(C(F)F)c1)C(=O)NC(C)(C)Cn1nc(C(F)(F)F)cc1-c1cc(F)c(=O)n(C)c1 (single isomer, unassigned; isomer 1) [Example 140]
77 ± 2.05	0.478	Cc1cn2cc(-c3ccc(C4CC45CCN([C@H](Cc4cnn(C(F)F)c4)C(=O)NC(C)(C)Cn4nc(C(F)(F)F)cc4-c4ccc(=O)n(C)c4)C5=O)c(C(F)(F)F)c3)cnc2n1 (single isomer, unassigned; isomer 1) [Example 153]
115 ± 1.59	0.845	Cc1cn2cc(-c3ccc([C@H]4C[C@@]45CCN([C@H](Cc4cnn(C(F)F)c4)C(=O)NC(C)(C)Cc4nc(C(F)(F)F)cn4C4CCN(C)C4=O)C5=O)c(Cl)c3)cnc2n1 (single isomer, unassigned; isomer 1) [Example 177]
85.5 ± 2.37	82.3	Cc1cc(C2CC2C(=O)N[C@H](Cc2cnn(C)c2)C(=O)NC(C)(C)Cc2ccc(F)cc2)ccc1NC(=O)Nc1ccc(F)cc1 (single isomer, unassigned; isomer 2) [Example 50]
89.8 ± 3.63	189	Cn1cc(C[C@@H](NC(=O)C2CC2c2ccc(-c3cnc4nn(C)cc4c3)s2)C(=O)NC(C)(C)Cn2nc(C(F)(F)F)cc2-c2ccc(=O)n(C)c2)cn1 (single isomer, unassigned; isomer 2) [Example 60]
88.4 ± 10.3	74.8	Cn1cc2cc(-c3ccc(C4CC4C(=O)N[C@H](Cc4cnc5ncccn45)C(=O)NC(C)(C)Cn4cc(C(F)(F)F)cn4)c(F)c3)cnc2n1 (single isomer, unassigned; isomer 2) [Example 71]
102 ± 4.83	300	CC(C)(Cn1cc(C(F)(F)F)cn1)NC(=O)[C@@H](Cc1cnc2ncccn12)NC(=O)C1CC1c1ccc(-c2cnc3nn(C(F)F)cc3c2)cn1 (single isomer, unassigned; isomer 2) [Example 72]
73.3 ± 2.59	0.701	Cn1cc2cc(-c3ccc(C4CC45CCN([C@H](Cc4cnn(C(F)F)c4)C(=O)NC(C)(C)Cn4nc(C(F)(F)F)cc4-c4cc(F)c(=O)n(C)c4)C5=O)c(C(F)F)c3)cnc2n1 (single isomer, unassigned; isomer 2) [Example 109]

— patent US20260108546A1 (ELI LILLY AND COMPANY, priority 2024, published 2026)
